From ChEMBL document CHEMBL2034921, “5-(5-(6-[(11)C]methyl-3,6-diazabicyclo[3.2.0]heptan-3-yl)pyridin-2-yl)-1H-indole as a potential PET radioligand for imaging cerebral α7-nAChR in mice” (Bioorg Med Chem, 2012)

Tests used:
Assay type in all cases: ADME, organism-based; call rule not given here
[1] = test system: Mus musculus; test: Biodistribution in CD1 mouse frontal cortex at 3.7 MBq, iv after 90 mins in presence of 0.5 mg/kg, sc of PHA543613; set-up: dose 0.5 mg/kg, route intravenous; details: in vivo, 1.5 h
[2] = test system: Thalamus; test: Biodistribution in CD1 mouse thalamus at 0.1 mCi, iv at 30 mins by gamma counting; details: in vivo, 0.5 h
[3] = test system: Hippocampus; test: Biodistribution in CD1 mouse hippocampus at 0.1 mCi, iv at 30 mins by gamma counting; details: in vivo, 0.5 h
[4] = test system: Hippocampus; test: Biodistribution in CD1 mouse hippocampus at 3.7 MBq, iv after 90 mins in presence of 0.5 mg/kg, sc of PHA543613; set-up: dose 0.5 mg/kg, route intravenous; details: in vivo, 1.5 h
[5] = test system: Mus musculus; test: Biodistribution in CD1 mouse frontal cortex at 0.1 mCi, iv at 30 mins by gamma counting; details: in vivo, 0.5 h
[6] = test system: Striatum; test: Biodistribution in CD1 mouse striatum at 0.1 mCi, iv at 30 mins by gamma counting; details: in vivo, 0.5 h

**Q.** Which Drug uptake [1] does the source give for [11CH3]N1CC2CN(c3ccc(-c4ccc5[nH]ccc5c4)nc3)CC21 (racemic) here?
**A.** The Drug uptake was “Not Active”.

**Q.** And the Drug uptake [2]?
**A.** Its Drug uptake is “Active”.

**Q.** And the Drug uptake [3]?
**A.** Its Drug uptake is “Active”.

**Q.** What about the Drug uptake [4] of the same compound?
**A.** The Drug uptake was “Not Active”.

**Q.** And the Drug uptake [5]?
**A.** The Drug uptake was “Active”.

**Q.** And the Drug uptake [6]?
**A.** The Drug uptake was “Active”.
